Common to all, as to assay: high resolution minimum inhibitory concentration (HRMIC) test
Common to all, as to type: cell-based

For one assay, the system named is Aspergillus niger 16404. To be noted: ppm active ingredient, M9GY medium, about 10^6 CFU/ml, 30°C for 24 hours, average of multiple determinations. The procedure:
(§1) Biological Activity: certain compounds of the present invention were tested for activity against three microorganisms, Escherichia coli 8739 (Gram-negative bacterium) and Staphylococcus aureus 6538 (Gram-positive bacterium) and Aspergillus niger 16404.
(§2) The lowest concentration of test compound required to inhibit Staphylococcus aureus 6538, Escherichia coli 8739 and Aspergillus niger 16404 was determined by a high resolution minimum inhibitory concentration (HRMIC) test. Varying amounts of the test compounds were added to minimal salts glucose medium (see T. Maniatis, E.F. Fritsch and J. Sambrook, Molecular Cloning, p 68 (1982)) supplemented with 0.1% yeast extract (M9GY) in a 96-well microtiter plate. Ten-fold serial dilutions were performed on a Biomek™ 2000 Workstation to obtain a range of closely spaced concentrations of test compound as shown in Table 1 (based on dilutions of a 10,000 ppm active ingredient stock solution of the test compound). The plates were inoculated with cell suspension of inoculum and adjusted to provide about 10^6 CFU (colony forming units)/ml in each well. The microtiter plates were incubated at 30°C for 24 hours and then checked (optical density at 650 nm using a microplate reader) for the presence or absence of microbial growth in each well. […] Data reported (ppm active ingredient) are the average of multiple determinations (see Table 2).

Another assay relates to Escherichia coli 8739. To be noted: for better control versus Gram-negative (E. coli) bacteria than compound 6: ratio of MIC relative to compound 6 (MIC >1000 ppm). The protocol: as §1, §2
In assay [1] the test system is Staphylococcus aureus 6538. The procedure: as §1, §2

Consider two compounds from patent EP1223171A1, “Antimicrobial 5-substituted-3-isothiazolone compounds and methods of use” (Rohm and Haas, priority 2001, dated 2002).

Each structure is given as a SMILES string. Values after ≈ are worked out from the molar mass of the structure shown.

For `Cn1sc(Sc2cccc[n+]2[O-])cc1=O` [Compound 3, [2-methyl-3-isothiazolon-5-yl]-(1-oxypyridin-2-yl)sulfide], the MIC (commonly the least concentration at which growth counts as inhibited) was determined as 60 mg/L (≈ 250 µM) against Aspergillus niger 16404; 6 mg/L (≈ 25 µM) with Escherichia coli 8739 (Escherichia coli, 8739, ppm active ingredient, M9GY medium, about 10^6 CFU/ml, 30°C for 24 hours, average of multiple determinations, read-out: MIC (ppm) E. coli); 1 mg/L (≈ 4.16 µM) in assay [1] (Staphylococcus aureus, 6538, ppm active ingredient, M9GY medium, about 10^6 CFU/ml, 30°C for 24 hours, average of multiple determinations, read-out: MIC (ppm) S. aur). The “better control versus Gram-negative (E. coli) bacteria than compound 6” value in the assay on Escherichia coli 8739 is listed as at least 160 fold. The “better control versus Gram-positive (S. aur) bacteria than compound 6” value in assay [1] (ratio of MIC relative to compound 6) stood at 5 fold.

Regarding `CCCCCCCCn1sc(Sc2cccc[n+]2[O-])c(Cl)c1=O` [Compound 5, [4-chloro-2-n-octyl-3-isothiazolon-5-yl]-(1-oxypyridin-2-yl)sulfide], the “better control versus Gram-negative (E. coli) bacteria than compound 6” value with Escherichia coli 8739 is given as “at least 30 fold”.
